{"source": "paper PMC6469676", "about": "(SLAS discovery : advancing life sciences R & D, 2018)", "key": {"SNV": {"system": "SNV", "type": "cell-based, Sin Nombre virus"}, "in vitro": {"experiment": "in vitro", "details": "African green monkey"}, "[1]": {"system": "SNV^R18 on DAF-functionalized beads", "type": "binding"}, "integrin αIIbβ3": {"biological_target": "integrin αIIbβ3 (Homo sapiens, UniProt P05106+P08514)", "sequence (P08514 32-887 limits assumed)": "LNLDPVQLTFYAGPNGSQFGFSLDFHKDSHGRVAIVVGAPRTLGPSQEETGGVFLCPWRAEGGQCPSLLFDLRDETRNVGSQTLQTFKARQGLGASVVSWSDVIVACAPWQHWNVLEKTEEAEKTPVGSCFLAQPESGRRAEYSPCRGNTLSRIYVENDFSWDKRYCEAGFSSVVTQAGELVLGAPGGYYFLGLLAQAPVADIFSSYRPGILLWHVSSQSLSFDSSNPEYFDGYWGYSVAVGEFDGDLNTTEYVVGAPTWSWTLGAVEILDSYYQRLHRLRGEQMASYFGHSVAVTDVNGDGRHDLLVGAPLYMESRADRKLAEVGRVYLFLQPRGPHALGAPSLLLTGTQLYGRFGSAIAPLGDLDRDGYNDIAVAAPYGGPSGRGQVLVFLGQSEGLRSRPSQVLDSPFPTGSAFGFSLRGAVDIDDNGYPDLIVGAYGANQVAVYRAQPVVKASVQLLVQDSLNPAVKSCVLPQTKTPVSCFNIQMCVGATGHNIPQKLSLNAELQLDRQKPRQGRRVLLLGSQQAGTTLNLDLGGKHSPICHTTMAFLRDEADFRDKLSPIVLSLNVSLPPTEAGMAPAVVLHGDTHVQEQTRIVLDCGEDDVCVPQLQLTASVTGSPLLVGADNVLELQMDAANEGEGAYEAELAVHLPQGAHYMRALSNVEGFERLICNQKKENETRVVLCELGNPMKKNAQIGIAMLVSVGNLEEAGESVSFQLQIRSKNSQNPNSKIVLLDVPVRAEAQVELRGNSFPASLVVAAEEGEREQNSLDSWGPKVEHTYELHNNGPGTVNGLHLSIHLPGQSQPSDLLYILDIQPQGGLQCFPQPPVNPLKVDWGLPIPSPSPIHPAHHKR", "sequence (P08514 891-1039 partner limits assumed)": "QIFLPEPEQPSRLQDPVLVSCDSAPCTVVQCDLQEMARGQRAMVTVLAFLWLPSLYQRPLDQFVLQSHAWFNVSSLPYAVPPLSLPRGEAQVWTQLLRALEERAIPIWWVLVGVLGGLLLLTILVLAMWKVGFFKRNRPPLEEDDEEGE", "sequence (P05106 27-788)": "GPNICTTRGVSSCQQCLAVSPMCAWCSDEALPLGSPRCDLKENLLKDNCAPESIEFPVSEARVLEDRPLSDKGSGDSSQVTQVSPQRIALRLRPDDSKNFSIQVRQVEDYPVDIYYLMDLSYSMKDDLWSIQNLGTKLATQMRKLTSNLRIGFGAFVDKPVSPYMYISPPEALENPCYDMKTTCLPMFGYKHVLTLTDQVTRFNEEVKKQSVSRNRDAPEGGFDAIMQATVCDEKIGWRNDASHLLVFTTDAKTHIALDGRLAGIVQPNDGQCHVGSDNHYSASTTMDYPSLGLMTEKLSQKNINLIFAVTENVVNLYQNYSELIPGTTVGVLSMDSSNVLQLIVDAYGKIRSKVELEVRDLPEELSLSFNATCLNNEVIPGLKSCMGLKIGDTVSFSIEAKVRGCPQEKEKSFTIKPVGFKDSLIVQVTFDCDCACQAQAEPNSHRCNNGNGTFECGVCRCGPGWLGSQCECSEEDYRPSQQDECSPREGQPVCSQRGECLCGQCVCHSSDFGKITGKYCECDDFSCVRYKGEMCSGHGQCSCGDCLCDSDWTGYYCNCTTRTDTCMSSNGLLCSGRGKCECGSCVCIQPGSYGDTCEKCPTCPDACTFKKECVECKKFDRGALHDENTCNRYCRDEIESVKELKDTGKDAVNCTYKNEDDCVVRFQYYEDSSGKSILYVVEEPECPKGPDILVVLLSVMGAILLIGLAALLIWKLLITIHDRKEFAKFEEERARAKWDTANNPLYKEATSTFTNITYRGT", "type": "cell-based"}, "[2]": {"system": "SNV-induced cAMP production in CHO-A24 cells", "type": "cell-based"}, "Sin Nombre virus (SNV)": {"system": "Sin Nombre virus (SNV)", "type": "cell-based", "details": "10 µM"}, "Hantaan virus (HTN)": {"system": "Hantaan virus (HTN)", "type": "cell-based", "details": "10 µM"}, "[3]": {"system": "SNV^F18 bound to Tanoue B cells", "details": "read-out: IC50, competition binding vs SNV^F18 bound to Tanoue B cells"}}}
{"compound": "O=C(Nc1cc(C(=O)Nc2ccc(S(=O)(=O)O)cc2S(=O)(=O)O)cc(C(=O)Nc2ccc(S(=O)(=O)O)cc2S(=O)(=O)O)c1)Nc1cc(C(=O)Nc2ccc(S(=O)(=O)O)cc2S(=O)(=O)O)cc(C(=O)Nc2ccc(S(=O)(=O)O)cc2S(=O)(=O)O)c1", "note": "[NF449]", "values": [{"measurement": "reduction of viral N-protein relative to vehicle-treated cells", "setting": "SNV", "result": "> 80", "unit": "%"}]}
{"compound": "COC(=O)Nc1nc2ccc(Sc3ccccc3)cc2[nH]1", "note": "[fenbendazole]", "values": [{"measurement": "viability", "setting": "in vitro", "result": "~70", "unit": "%"}]}
{"compound": "Cc1cc2c(C(C)C)c(O)c(O)c(C=O)c2c(O)c1-c1c(C)cc2c(C(C)C)c(O)c(O)c(C=O)c2c1O", "note": "[gossypol]", "values": [{"measurement": "viability", "setting": "in vitro", "result": "~30", "unit": "%"}, {"measurement": "koff, drop in bead fluorescence", "setting": "[1]", "result": "~ 0.25"}]}
{"compound": "O=C(Nc1ccc([N+](=O)[O-])cc1Cl)c1cc(Cl)ccc1O", "note": "[niclosamide]", "values": [{"measurement": "viability", "setting": "in vitro", "result": "~50", "unit": "%"}]}
{"compound": "Cc1c(Cl)cccc1Nc1ccccc1C(=O)O", "note": "[tolfenamic acid]", "values": [{"measurement": "koff, drop in bead fluorescence", "setting": "[1]", "result": "~ 0.25"}]}
{"compound": "GRGDSP", "values": [{"measurement": "effect on SNV-induced PAC-1 staining", "setting": "integrin αIIbβ3", "result": "inhibited PAC1 staining"}, {"measurement": "effect on SNV-stimulated cAMP", "setting": "[2]", "result": "did not affect SNV-stimulated cAMP response"}]}
{"compound": "antimycin", "values": [{"measurement": "% inhibition of infection by SNV", "setting": "Sin Nombre virus (SNV)", "result": "≥ 80", "unit": "%"}, {"measurement": "% inhibition of infection by HTN", "setting": "Hantaan virus (HTN)", "result": "≥ 80", "unit": "%"}, {"measurement": "cytopathic effects after 24 hours", "setting": "Vero E6 cells", "result": "minimal cytopathic effects"}, {"measurement": "IC50", "setting": "[3]", "result": 10, "unit": "µM"}, {"measurement": "effect on SNV-induced PAC-1 staining", "setting": "integrin αIIbβ3", "result": "inhibited PAC-1 staining"}, {"measurement": "effect on SNV-stimulated cAMP", "setting": "[2]", "result": "inhibited stimulation of cAMP"}, {"measurement": "koff, drop in bead fluorescence", "setting": "[1]", "result": "~ 0.25"}]}
{"compound": "tocopherol", "values": [{"measurement": "cytopathic effects after 24 hours", "setting": "Vero E6 cells", "result": "minimal cytopathic effects"}]}
